Consider six molecules from patent US9643967B2, “Pyrrolo[3,2-c]pyridine derivatives as TLR inhibitors” (TAKEDA PHARMACEUTICAL COMPANY LIMITED, priority 2013, dated 2017).

The structures appear in SMILES notation. Like-named read-outs stand apart in the source and are kept apart here.

For this assay, the target named is T1, mTLR9 (Mus musculus, UniProt Q9EQU3).
T1 construct: Splenocytes isolated from male C57/BL6 mice; from tissue; host or cells: splenocytes from the spleen of male C57BL/6 mice
T1 sequence (Q9EQU3 26-1032): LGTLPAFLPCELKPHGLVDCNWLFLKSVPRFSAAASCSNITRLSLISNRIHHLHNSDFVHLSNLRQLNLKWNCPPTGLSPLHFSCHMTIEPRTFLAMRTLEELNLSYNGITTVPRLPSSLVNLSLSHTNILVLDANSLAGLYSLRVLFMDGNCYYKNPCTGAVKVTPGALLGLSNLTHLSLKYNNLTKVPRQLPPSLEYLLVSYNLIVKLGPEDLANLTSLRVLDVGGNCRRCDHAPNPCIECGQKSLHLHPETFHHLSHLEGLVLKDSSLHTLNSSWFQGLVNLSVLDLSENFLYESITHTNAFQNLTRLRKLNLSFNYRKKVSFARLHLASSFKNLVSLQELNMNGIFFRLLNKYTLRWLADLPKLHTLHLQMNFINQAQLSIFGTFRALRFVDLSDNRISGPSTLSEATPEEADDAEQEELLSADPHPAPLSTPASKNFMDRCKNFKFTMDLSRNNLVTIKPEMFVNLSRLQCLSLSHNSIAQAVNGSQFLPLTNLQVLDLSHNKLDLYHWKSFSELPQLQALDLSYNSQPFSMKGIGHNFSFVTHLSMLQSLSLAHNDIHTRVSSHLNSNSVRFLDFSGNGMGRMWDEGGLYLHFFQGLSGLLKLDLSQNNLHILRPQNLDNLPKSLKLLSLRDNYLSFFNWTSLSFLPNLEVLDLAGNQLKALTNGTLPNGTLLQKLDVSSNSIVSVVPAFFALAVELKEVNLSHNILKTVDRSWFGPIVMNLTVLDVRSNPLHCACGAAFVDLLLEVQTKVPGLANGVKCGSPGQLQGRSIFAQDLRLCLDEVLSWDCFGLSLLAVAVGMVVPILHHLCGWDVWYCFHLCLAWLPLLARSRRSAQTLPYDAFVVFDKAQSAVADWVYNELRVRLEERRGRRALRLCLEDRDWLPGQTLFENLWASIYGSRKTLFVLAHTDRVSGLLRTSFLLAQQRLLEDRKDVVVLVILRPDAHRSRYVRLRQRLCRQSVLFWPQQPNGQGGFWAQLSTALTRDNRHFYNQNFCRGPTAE
The assay is described as follows: mTLR9 antagonism (IL-6 and TNF-α release assay) in mouse splenocytes, CpG ODN-2006 stimulated. Particulars: 1 μM, mouse splenocytes. The class given is cell-based. A digest of the protocol:
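C57BL6 mouse splenocytes (0.2 million/well) pre-incubated 30 min at 37 °C with compounds (30 μM–1 nM, 0.3% DMSO), then stimulated with 1 μg/ml CpG ODN-2006 overnight at 37 °C/5% CO2. IL-6 and TNF-α in supernatant measured by ELISA; IC50 from % inhibition curves.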

Where [1] appears, read: IL-6 release, read-out: mTLR9 inhibitory activity (% at 1 μM), IL-6.
[2] abbreviates: TNF-α release, read-out: mTLR9 inhibitory activity (% at 1 μM), TNF-α.

Turning to `CC(C)N1CCN(Cc2ccc(-c3nccc4[nH]c(CN5CCOCC5)cc34)cc2)CC1` [Example A55, 4-[[4-[4-[(4-isopropylpiperazin-1-yl)methyl]phenyl]-1H-pyrrolo[3,2-c]pyridin-2-yl]methyl]morpholine], the inhibition at 1 µM was 96% under setting [1] and 59% under setting [2].

In the case of `Cc1cc2c(cc(CCN3CCOCC3)n2C)c(-c2cccc(N3CCN(C(C)C)CC3)c2)n1` [Example B21, 4-[2-[4-[3-(4-isopropylpiperazin-1-yl)phenyl]-1,6-dimethyl-pyrrolo[3,2-c]pyridin-2-yl]ethyl]morpholine], the inhibition at 1 µM under setting [1] came out at 100% and the inhibition at 1 µM under setting [2] came out at 100%.

`Cc1cc2[nH]c(CN3CCC4(CC3)CC(C)C4)cc2c(-c2ccc(N3CCN(C(C)C)CC3)cc2)n1` [Example A30, 4-[4-(4-isopropylpiperazin-1-yl)phenyl]-6-methyl-2-[(2-methyl-7-azaspiro[3.5]nonan-7-yl)methyl]-1H-pyrrolo[3,2-c]pyridine]: the inhibition at 1 µM is, setting by setting: under setting [1], 100%; under setting [2], 100%.

With `CC(C)N1CCN(c2ccc(-c3nccc4[nH]c(CN5CC(F)C5)cc34)cc2)CC1` [Example A16, 2-[(3-fluoroazetidin-1-yl)methyl]-4-[4-(4-isopropylpiperazin-1-yl)phenyl]-1H-pyrrolo[3,2-c]pyridine], the inhibition at 1 µM turned out to be 100% under setting [1] and 100% under setting [2].

In the case of `c1cc2[nH]c(CN3CCOCC3)cc2c(-c2ccc(N3CCN(C4COC4)CC3)cc2)n1` [Example A81, 4-[[4-[4-[4-(oxetan-3-yl)piperazin-1-yl]phenyl]-1H-pyrrolo[3,2-c]pyridin-2-yl]methyl]morpholine], the inhibition at 1 µM came to 37% under setting [1] and 20% under setting [2].

Take `CC(C)N1CCN(c2cccc(-c3nccc4[nH]c(CN5CCOCC5)cc34)c2)CC1` [Example A57, 4-[[4-[3-(4-isopropylpiperazin-1-yl)phenyl]-1H-pyrrolo[3,2-c]pyridin-2-yl]methyl]morpholine]: the inhibition at 1 µM reads like this: under setting [1], 100%; under setting [2], 34%.
